# Measured values published in PubChem BioAssay (NCI).
#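 Compound exposure: 48 hours, 5 concentrations, 96-well plates. Abbreviation: GI50, concentration required for 50% inhibition of growth. At the TGI there is no net growth.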
# Assays:
# Assay in all cases: NCI-60 cell line screen, 48 h
# ACHN renal = tested on: ACHN renal
# TK-10 renal = tested on: TK-10 renal
# KM12 colon = tested on: KM12 colon
# SK-MEL-2 melanoma = tested on: SK-MEL-2 melanoma
# SW-620 colon = tested on: SW-620 colon
# OVCAR-8 ovarian = tested on: OVCAR-8 ovarian
# SNB-19 CNS = tested on: SNB-19 CNS
# HOP-92 NSCLC = tested on: HOP-92 NSCLC
# CCRF-CEM leukemia = tested on: CCRF-CEM leukemia
# T-47D breast = tested on: T-47D breast
# HCC-2998 colon = tested on: HCC-2998 colon
# OVCAR-3 ovarian = tested on: OVCAR-3 ovarian
# MCF7 breast = tested on: MCF7 breast
# SR leukemia = tested on: SR leukemia
# HCT-15 colon = tested on: HCT-15 colon
# K-562 leukemia = tested on: K-562 leukemia
# U251 CNS = tested on: U251 CNS
# MDA-MB-435 = tested on: MDA-MB-435
# SK-MEL-28 melanoma = tested on: SK-MEL-28 melanoma
# SN12C renal = tested on: SN12C renal
# NCI/ADR-RES ovarian = tested on: NCI/ADR-RES ovarian
# SF-268 CNS = tested on: SF-268 CNS
# A498 renal = tested on: A498 renal
# DU-145 prostate = tested on: DU-145 prostate
# M14 melanoma = tested on: M14 melanoma
# MOLT-4 leukemia = tested on: MOLT-4 leukemia
# SK-MEL-5 melanoma = tested on: SK-MEL-5 melanoma
# HCT-116 colon = tested on: HCT-116 colon
# MDA-MB-231 breast = tested on: MDA-MB-231 breast
# SF-539 CNS = tested on: SF-539 CNS
# UACC-62 melanoma = tested on: UACC-62 melanoma
# SF-295 CNS = tested on: SF-295 CNS
# UACC-257 melanoma = tested on: UACC-257 melanoma
# IGROV1 ovarian = tested on: IGROV1 ovarian
# UO-31 renal = tested on: UO-31 renal
# NCI-H460 lung = tested on: NCI-H460 lung
# SK-OV-3 ovarian = tested on: SK-OV-3 ovarian
# RPMI-8226 leukemia = tested on: RPMI-8226 leukemia
# HOP-62 NSCLC = tested on: HOP-62 NSCLC
# SNB-75 CNS = tested on: SNB-75 CNS
# LOX IMVI melanoma = tested on: LOX IMVI melanoma
# CAKI-1 renal = tested on: CAKI-1 renal
# EKVX NSCLC = tested on: EKVX NSCLC
# BT-549 breast = tested on: BT-549 breast
# NCI-H226 lung = tested on: NCI-H226 lung
# NCI-H522 lung = tested on: NCI-H522 lung
# MALME-3M melanoma = tested on: MALME-3M melanoma
# OVCAR-5 ovarian = tested on: OVCAR-5 ovarian
# 786-0 renal = tested on: 786-0 renal
# PC-3 prostate = tested on: PC-3 prostate
compound,measurement,setting,value
CS(=O)(=O)c1ccc2c(c1)c1c(n2S(=O)(=O)c2ccc(Cl)cc2)CCCC1,GI50,ACHN renal,7.56 µM
same,TGI,ACHN renal,> 100 µM
same,GI50,TK-10 renal,> 100 µM
same,TGI,TK-10 renal,> 100 µM
same,GI50,KM12 colon,3.16 µM
same,TGI,KM12 colon,> 100 µM
same,GI50,SK-MEL-2 melanoma,2.15 µM
same,TGI,SK-MEL-2 melanoma,7.44 µM
same,GI50,SW-620 colon,2.82 µM
same,TGI,SW-620 colon,> 100 µM
same,GI50,OVCAR-8 ovarian,4.11 µM
same,TGI,OVCAR-8 ovarian,> 100 µM
same,GI50,SNB-19 CNS,5.54 µM
same,TGI,SNB-19 CNS,> 100 µM
same,GI50,HOP-92 NSCLC,3.04 µM
same,TGI,HOP-92 NSCLC,> 100 µM
same,GI50,CCRF-CEM leukemia,3.16 µM
same,TGI,CCRF-CEM leukemia,> 100 µM
same,GI50,T-47D breast,3.71 µM
same,TGI,T-47D breast,> 100 µM
same,GI50,HCC-2998 colon,3.57 µM
same,TGI,HCC-2998 colon,> 100 µM
same,GI50,OVCAR-3 ovarian,3.56 µM
same,TGI,OVCAR-3 ovarian,> 100 µM
same,GI50,MCF7 breast,2.61 µM
same,TGI,MCF7 breast,> 100 µM
same,GI50,SR leukemia,0.594 µM
same,TGI,SR leukemia,> 100 µM
same,GI50,HCT-15 colon,1.93 µM
same,TGI,HCT-15 colon,> 100 µM
same,GI50,K-562 leukemia,0.706 µM
same,TGI,K-562 leukemia,> 100 µM
same,GI50,U251 CNS,4.68 µM
same,TGI,U251 CNS,> 100 µM
same,GI50,MDA-MB-435,0.583 µM
same,TGI,MDA-MB-435,3.29 µM
same,GI50,SK-MEL-28 melanoma,34.8 µM
same,TGI,SK-MEL-28 melanoma,> 100 µM
same,GI50,SN12C renal,5.19 µM
same,TGI,SN12C renal,> 100 µM
same,GI50,NCI/ADR-RES ovarian,2.33 µM
same,TGI,NCI/ADR-RES ovarian,> 100 µM
same,GI50,SF-268 CNS,> 100 µM
same,TGI,SF-268 CNS,> 100 µM
same,GI50,A498 renal,> 100 µM
same,TGI,A498 renal,> 100 µM
same,GI50,DU-145 prostate,4.3 µM
same,TGI,DU-145 prostate,> 100 µM
same,GI50,M14 melanoma,3.69 µM
same,TGI,M14 melanoma,> 100 µM
same,GI50,MOLT-4 leukemia,4.49 µM
same,TGI,MOLT-4 leukemia,> 100 µM
same,GI50,SK-MEL-5 melanoma,3.92 µM
same,TGI,SK-MEL-5 melanoma,> 100 µM
same,GI50,HCT-116 colon,3.5 µM
same,TGI,HCT-116 colon,> 100 µM
same,GI50,MDA-MB-231 breast,4.25 µM
same,TGI,MDA-MB-231 breast,> 100 µM
same,GI50,SF-539 CNS,3.15 µM
same,TGI,SF-539 CNS,> 100 µM
same,GI50,UACC-62 melanoma,3.14 µM
same,TGI,UACC-62 melanoma,> 100 µM
same,GI50,SF-295 CNS,4.08 µM
same,TGI,SF-295 CNS,> 100 µM
same,GI50,UACC-257 melanoma,10.3 µM
same,TGI,UACC-257 melanoma,> 100 µM
same,GI50,IGROV1 ovarian,5.24 µM
same,TGI,IGROV1 ovarian,> 100 µM
same,GI50,UO-31 renal,3.82 µM
same,TGI,UO-31 renal,> 100 µM
same,GI50,NCI-H460 lung,3.5 µM
same,TGI,NCI-H460 lung,> 100 µM
same,GI50,SK-OV-3 ovarian,4.95 µM
same,TGI,SK-OV-3 ovarian,> 100 µM
same,GI50,RPMI-8226 leukemia,3.72 µM
same,TGI,RPMI-8226 leukemia,> 100 µM
same,GI50,HOP-62 NSCLC,4.3 µM
same,TGI,HOP-62 NSCLC,> 100 µM
same,GI50,SNB-75 CNS,1.42 µM
same,TGI,SNB-75 CNS,6.15 µM
same,GI50,LOX IMVI melanoma,4.32 µM
same,TGI,LOX IMVI melanoma,> 100 µM
same,GI50,CAKI-1 renal,3.12 µM
same,TGI,CAKI-1 renal,> 100 µM
same,GI50,EKVX NSCLC,5.55 µM
same,TGI,EKVX NSCLC,> 100 µM
same,GI50,BT-549 breast,5.39 µM
same,TGI,BT-549 breast,> 100 µM
same,GI50,NCI-H226 lung,3.22 µM
same,TGI,NCI-H226 lung,> 100 µM
same,GI50,NCI-H522 lung,1.08 µM
same,TGI,NCI-H522 lung,3.39 µM
same,GI50,MALME-3M melanoma,7.11 µM
same,TGI,MALME-3M melanoma,> 100 µM
same,GI50,OVCAR-5 ovarian,5.37 µM
same,TGI,OVCAR-5 ovarian,> 100 µM
same,GI50,786-0 renal,4.73 µM
same,TGI,786-0 renal,> 100 µM
same,GI50,PC-3 prostate,3.42 µM
same,TGI,PC-3 prostate,> 100 µM
